Several values for one entry are separate records, joined by “and”; a condition that tells them apart may be missing. Identical values can stand only once.
Test system: 945468-187-T-J2-PDC spheroids viability
Assay: Anticancer human tumor 945468-187-T-J2-PDC patient-derived rectal carcinoma cell line growth inhibition [PI3K]
Settings: spheroids with HUVEC and MSC; for viability, T/C: stronger effect = lower value
Method in brief: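 Targeted small molecules plus PI3K inhibitors, half-log dose series from Cmax (default top 10 microM), were applied to heterotypic spheroids of cancer cells with HUVEC and MSCs. Viability indicated growth inhibition.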

[1] = curve of first compound, second compound 0.00316 µM
[2] = curve of first compound, second compound 0.01 µM
[3] = curve of first compound, second compound 0.0316 µM
[4] = curve of first compound, second compound 0.1 µM
[5] = curve of first compound, second compound 0.316 µM
[6] = curve of first compound, second compound 1 µM
[7] = second compound 0.00316 µM, first compound 0.0316 µM
[8] = second compound 0.00316 µM, first compound 0.1 µM
[9] = second compound 0.00316 µM, first compound 0.316 µM
[10] = second compound 0.00316 µM, first compound 1 µM
[11] = second compound 0.00316 µM, first compound 3.16 µM
[12] = second compound 0.00316 µM, first compound 10 µM
[13] = second compound 0.01 µM, first compound 0.0316 µM
[14] = second compound 0.01 µM, first compound 0.1 µM
[15] = second compound 0.01 µM, first compound 0.316 µM
[16] = second compound 0.01 µM, first compound 1 µM
[17] = second compound 0.01 µM, first compound 3.16 µM
[18] = second compound 0.01 µM, first compound 10 µM
[19] = second compound 0.0316 µM, first compound 0.0316 µM
[20] = second compound 0.0316 µM, first compound 0.1 µM
[21] = second compound 0.0316 µM, first compound 0.316 µM
[22] = second compound 0.0316 µM, first compound 1 µM
[23] = second compound 0.0316 µM, first compound 3.16 µM
[24] = second compound 0.0316 µM, first compound 10 µM
[25] = second compound 0.1 µM, first compound 0.0316 µM
[26] = second compound 0.1 µM, first compound 0.1 µM
[27] = second compound 0.1 µM, first compound 0.316 µM
[28] = second compound 0.1 µM, first compound 1 µM
[29] = second compound 0.1 µM, first compound 3.16 µM
[30] = second compound 0.1 µM, first compound 10 µM
[31] = second compound 0.316 µM, first compound 0.0316 µM
[32] = second compound 0.316 µM, first compound 0.1 µM
[33] = second compound 0.316 µM, first compound 0.316 µM
[34] = second compound 0.316 µM, first compound 1 µM
[35] = second compound 0.316 µM, first compound 3.16 µM
[36] = second compound 0.316 µM, first compound 10 µM
[37] = second compound 1 µM, first compound 0.0316 µM
[38] = second compound 1 µM, first compound 0.1 µM
[39] = second compound 1 µM, first compound 0.316 µM
[40] = second compound 1 µM, first compound 1 µM
[41] = second compound 1 µM, first compound 3.16 µM
[42] = second compound 1 µM, first compound 10 µM
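Further: spheroids exposed to compounds for seven days before reading.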

CNC(=O)c1ccc(N2C(=S)N(c3ccc(C#N)c(C(F)(F)F)c3)C(=O)C2(C)C)cc1F + COc1c(OCCCN2CCOCC2)ccc2c3n(c(=NC(=O)c4cnc(N)nc4)nc12)CCN3
IC50 [1]: > 10000 nM
IC50 [2]: > 10000 nM
IC50 [3]: > 10000 nM
IC50 [4]: > 10000 nM
IC50 [5]: < 31.6 nM
IC50 [6]: < 31.6 nM
viability, T/C [7]: 107%
viability, T/C [8]: 86.3%
viability, T/C [9]: 94.9%
viability, T/C [10]: 113%
viability, T/C [11]: 91.1%
viability, T/C [12]: 80%
viability, T/C [13]: 95.5%
viability, T/C [14]: 92.2%
viability, T/C [15]: 108%
viability, T/C [16]: 110%
viability, T/C [17]: 90.9%
viability, T/C [18]: 72.1%
viability, T/C [19]: 87.8%
viability, T/C [20]: 93.1%
viability, T/C [21]: 113%
viability, T/C [22]: 111%
viability, T/C [23]: 93%
viability, T/C [24]: 109%
viability, T/C [25]: 102%
viability, T/C [26]: 94%
viability, T/C [27]: 95.9%
viability, T/C [28]: 81.2%
viability, T/C [29]: 82%
viability, T/C [30]: 64.4%
viability, T/C [31]: 33.8%
viability, T/C [32]: 39.6%
viability, T/C [33]: 48.2%
viability, T/C [34]: 38.6%
viability, T/C [35]: 38.5%
viability, T/C [36]: 34.7%
viability, T/C [37]: 18.2%
viability, T/C [38]: 21.1%
viability, T/C [39]: 17.2%
viability, T/C [40]: 23.1%
viability, T/C [41]: 23.3%
viability, T/C [42]: 21%

CC1(C)CCC(Nc2ncc(C(F)(F)F)c(-c3c[nH]c4c(P(C)(C)=O)c(C#N)ccc34)n2)CN1 (stereo not drawn) + CC(Nc1ccc2c(c1)OCCn1cc(N3C(=O)OCC3C(F)F)nc1-2)C(N)=O
IC50 [1]: 798 nM
IC50 [2]: 1310 nM
IC50 [3]: 2110 nM
IC50 [4]: 1060 nM
IC50 [5]: 896 nM
IC50 [6]: 4240 nM
viability, T/C [7]: 96%
viability, T/C [8]: 115%
viability, T/C [9]: 71.8%
viability, T/C [10]: 50.2%
viability, T/C [11]: 34.2%
viability, T/C [12]: 49.6%
viability, T/C [13]: 91.6%
viability, T/C [14]: 92.7%
viability, T/C [15]: 88.8%
viability, T/C [16]: 52.5%
viability, T/C [17]: 40.5%
viability, T/C [18]: 42.7%
viability, T/C [19]: 82.2%
viability, T/C [20]: 98.3%
viability, T/C [21]: 61.1%
viability, T/C [22]: 64.3%
viability, T/C [23]: 42.9%
viability, T/C [24]: 43.8%
viability, T/C [25]: 105%
viability, T/C [26]: 91%
viability, T/C [27]: 81%
viability, T/C [28]: 48.5%
viability, T/C [29]: 41.8%
viability, T/C [30]: 51.4%
viability, T/C [31]: 77.5%
viability, T/C [32]: 103%
viability, T/C [33]: 89.3%
viability, T/C [34]: 45.8%
viability, T/C [35]: 39.8%
viability, T/C [36]: 31.6%
viability, T/C [37]: 85.3%
viability, T/C [38]: 76.3%
viability, T/C [39]: 67.3%
viability, T/C [40]: 65.7%
viability, T/C [41]: 54.6%
viability, T/C [42]: 40.1%

CC(C)n1nc(-c2ccc3oc(N)nc3c2)c2c(N)ncnc21
viability, T/C (compound 0.001 µM): 92.3% [middle of 4 runs]
viability, T/C (compound 0.0316 µM): 94.4% [middle of 4 runs]
viability, T/C (compound 0.1 µM): 71.9% [middle of 4 runs]
IC50 (curve of compound): > 100 nM

Cn1ncnc1[C@H]1c2n[nH]c(=O)c3cc(F)cc(c23)N[C@@H]1c1ccc(F)cc1 + CC(Nc1ncnc2nc[nH]c12)c1cc2cccc(Cl)c2c(=O)n1-c1ccccc1
IC50 [3]: > 100 nM
IC50 [4]: > 100 nM
IC50 [5]: > 100 nM
IC50 [6]: > 100 nM
IC50 (curve of first compound, second compound 3.16 µM): > 100 nM
IC50 (curve of first compound, second compound 10 µM): > 100 nM
viability, T/C (second compound 0.0316 µM, first compound 0.000316 µM): 100%
viability, T/C (second compound 0.0316 µM, first compound 0.001 µM): 106%
viability, T/C (second compound 0.0316 µM, first compound 0.00316 µM): 85.3%
viability, T/C (second compound 0.0316 µM, first compound 0.01 µM): 93.1%
viability, T/C [19]: 87.3%
viability, T/C [20]: 89.8%
viability, T/C (second compound 0.1 µM, first compound 0.000316 µM): 89%
viability, T/C (second compound 0.1 µM, first compound 0.001 µM): 90.3%
viability, T/C (second compound 0.1 µM, first compound 0.00316 µM): 88%
viability, T/C (second compound 0.1 µM, first compound 0.01 µM): 88%
viability, T/C [25]: 103%
viability, T/C [26]: 109%
viability, T/C (second compound 0.316 µM, first compound 0.000316 µM): 115%
viability, T/C (second compound 0.316 µM, first compound 0.001 µM): 102%
viability, T/C (second compound 0.316 µM, first compound 0.00316 µM): 130%
viability, T/C (second compound 0.316 µM, first compound 0.01 µM): 97.5%
viability, T/C [31]: 121%
viability, T/C [32]: 96.8%
viability, T/C (second compound 1 µM, first compound 0.000316 µM): 88.8%
viability, T/C (second compound 1 µM, first compound 0.001 µM): 100%
viability, T/C (second compound 1 µM, first compound 0.00316 µM): 84.7%
viability, T/C (second compound 1 µM, first compound 0.01 µM): 108%
viability, T/C [37]: 103%
viability, T/C [38]: 110%
viability, T/C (second compound 3.16 µM, first compound 0.000316 µM): 120%
viability, T/C (second compound 3.16 µM, first compound 0.001 µM): 108%
viability, T/C (second compound 3.16 µM, first compound 0.00316 µM): 116%
viability, T/C (second compound 3.16 µM, first compound 0.01 µM): 128%
viability, T/C (second compound 3.16 µM, first compound 0.0316 µM): 99.4%
viability, T/C (second compound 3.16 µM, first compound 0.1 µM): 111%
viability, T/C (second compound 10 µM, first compound 0.000316 µM): 117%
viability, T/C (second compound 10 µM, first compound 0.001 µM): 103%
viability, T/C (second compound 10 µM, first compound 0.00316 µM): 112%
viability, T/C (second compound 10 µM, first compound 0.01 µM): 105%
viability, T/C (second compound 10 µM, first compound 0.0316 µM): 102%
viability, T/C (second compound 10 µM, first compound 0.1 µM): 109%

CC1(C)CCC(Nc2ncc(C(F)(F)F)c(-c3c[nH]c4c(P(C)(C)=O)c(C#N)ccc34)n2)CN1 (stereo not drawn)
viability, T/C (compound 0.0316 µM): 94.2% (2×) and 113% and 89.1%
viability, T/C (compound 0.1 µM): 96.6% [middle of 4 runs]
viability, T/C (compound 3.16 µM): 43% [middle of 4 runs]
